Measurements from PubChem BioAssay (NCI).
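Growth conditions: 96-well plates. Treatment: test compound, 48 hours, 5 concentrations. Analysis: linear interpolation between bracketing concentrations; unreached endpoints set to highest concentration. The concentration for full growth arrest is given as TGI.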

Key:
Experiment in all cases: NCI-60 cell line screen, 48 h
U251 CNS = test system: U251 CNS
CAKI-1 renal = test system: CAKI-1 renal
OVCAR-5 ovarian = test system: OVCAR-5 ovarian
RXF 393 renal = test system: RXF 393 renal
SF-295 CNS = test system: SF-295 CNS
TK-10 renal = test system: TK-10 renal
UACC-62 melanoma = test system: UACC-62 melanoma
OVCAR-8 ovarian = test system: OVCAR-8 ovarian
UO-31 renal = test system: UO-31 renal
MDA-MB-435 = test system: MDA-MB-435
NCI-H23 lung = test system: NCI-H23 lung
OVCAR-4 ovarian = test system: OVCAR-4 ovarian
SNB-19 CNS = test system: SNB-19 CNS
SNB-75 CNS = test system: SNB-75 CNS
SK-MEL-2 melanoma = test system: SK-MEL-2 melanoma
M14 melanoma = test system: M14 melanoma
HCC-2998 colon = test system: HCC-2998 colon
PC-3 prostate = test system: PC-3 prostate
MOLT-4 leukemia = test system: MOLT-4 leukemia
T-47D breast = test system: T-47D breast
MDA-MB-231 breast = test system: MDA-MB-231 breast
MCF7 breast = test system: MCF7 breast
786-0 renal = test system: 786-0 renal
IGROV1 ovarian = test system: IGROV1 ovarian
MDA-N = test system: MDA-N
COLO 205 colon = test system: COLO 205 colon
OVCAR-3 ovarian = test system: OVCAR-3 ovarian
RPMI-8226 leukemia = test system: RPMI-8226 leukemia
DU-145 prostate = test system: DU-145 prostate
EKVX NSCLC = test system: EKVX NSCLC
SW-620 colon = test system: SW-620 colon
HOP-92 NSCLC = test system: HOP-92 NSCLC
CCRF-CEM leukemia = test system: CCRF-CEM leukemia
SK-MEL-5 melanoma = test system: SK-MEL-5 melanoma
SK-MEL-28 melanoma = test system: SK-MEL-28 melanoma
LOX IMVI melanoma = test system: LOX IMVI melanoma
NCI/ADR-RES ovarian = test system: NCI/ADR-RES ovarian
NCI-H226 lung = test system: NCI-H226 lung
HOP-62 NSCLC = test system: HOP-62 NSCLC
SF-539 CNS = test system: SF-539 CNS
NCI-H460 lung = test system: NCI-H460 lung
SN12C renal = test system: SN12C renal
SR leukemia = test system: SR leukemia
UACC-257 melanoma = test system: UACC-257 melanoma
K-562 leukemia = test system: K-562 leukemia
ACHN renal = test system: ACHN renal
HCT-116 colon = test system: HCT-116 colon
BT-549 breast = test system: BT-549 breast
KM12 colon = test system: KM12 colon
HCT-15 colon = test system: HCT-15 colon
A498 renal = test system: A498 renal
A549 NSCLC = test system: A549 NSCLC
SK-OV-3 ovarian = test system: SK-OV-3 ovarian
HS 578T breast = test system: HS 578T breast

SMILES: CC(=O)O[C@H]1CC[C@H]2[C@@H]3CCC4=CC(=O)C=C[C@]4(O)[C@H]3CC[C@]12C
- TGI (U251 CNS): > 100 µM
- TGI (CAKI-1 renal): > 100 µM
- TGI (OVCAR-5 ovarian): > 100 µM
- TGI (RXF 393 renal): 76 µM
- TGI (SF-295 CNS): > 100 µM
- TGI (TK-10 renal): > 100 µM
- TGI (UACC-62 melanoma): > 90.2 µM
- TGI (OVCAR-8 ovarian): > 86 µM
- TGI (UO-31 renal): > 100 µM
- TGI (MDA-MB-435): 49.5 µM
- TGI (NCI-H23 lung): > 62.4 µM
- TGI (OVCAR-4 ovarian): > 100 µM
- TGI (SNB-19 CNS): > 100 µM
- TGI (SNB-75 CNS): 61.3 µM
- TGI (SK-MEL-2 melanoma): > 73.4 µM
- TGI (M14 melanoma): > 100 µM
- TGI (HCC-2998 colon): > 100 µM
- TGI (PC-3 prostate): > 93.1 µM
- TGI (MOLT-4 leukemia): 25.7 µM
- TGI (T-47D breast): > 100 µM
- TGI (MDA-MB-231 breast): > 100 µM
- TGI (MCF7 breast): > 83.5 µM
- TGI (786-0 renal): > 100 µM
- TGI (IGROV1 ovarian): > 100 µM
- TGI (MDA-N): > 60.9 µM
- TGI (COLO 205 colon): > 55.6 µM
- TGI (OVCAR-3 ovarian): > 100 µM
- TGI (RPMI-8226 leukemia): 44.3 µM
- TGI (DU-145 prostate): > 100 µM
- TGI (EKVX NSCLC): > 80.7 µM
- TGI (SW-620 colon): > 57.5 µM
- TGI (HOP-92 NSCLC): 92.3 µM
- TGI (CCRF-CEM leukemia): 46.5 µM
- TGI (SK-MEL-5 melanoma): 23.4 µM
- TGI (SK-MEL-28 melanoma): > 100 µM
- TGI (LOX IMVI melanoma): > 54.4 µM
- TGI (NCI/ADR-RES ovarian): 46.2 µM
- TGI (NCI-H226 lung): > 96.7 µM
- TGI (HOP-62 NSCLC): > 100 µM
- TGI (SF-539 CNS): > 100 µM
- TGI (NCI-H460 lung): > 100 µM
- TGI (SN12C renal): > 100 µM
- TGI (SR leukemia): 5.1 µM
- TGI (UACC-257 melanoma): > 81.9 µM
- TGI (K-562 leukemia): 27.5 µM
- TGI (ACHN renal): > 100 µM
- TGI (HCT-116 colon): > 100 µM
- TGI (BT-549 breast): > 79.8 µM
- TGI (KM12 colon): 52.8 µM
- TGI (HCT-15 colon): > 100 µM
- TGI (A498 renal): > 100 µM
- TGI (A549 NSCLC): > 87.9 µM

SMILES: Cc1cc2c(c(O)c1-c1c(C)cc(O)c3c1C(=O)C=CC3=O)C(=O)C=CC2=O
- TGI (U251 CNS): 32.1 µM
- TGI (CAKI-1 renal): 1.48 µM
- TGI (OVCAR-5 ovarian): 7.86 µM
- TGI (RXF 393 renal): 2.5 µM
- TGI (SF-295 CNS): 33.1 µM
- TGI (TK-10 renal): 3.12 µM
- TGI (UACC-62 melanoma): 4.98 µM
- TGI (UO-31 renal): 3.44 µM
- TGI (NCI-H23 lung): 18.4 µM
- TGI (OVCAR-4 ovarian): 10.3 µM
- TGI (SNB-19 CNS): > 56.8 µM
- TGI (SNB-75 CNS): 84.9 µM
- TGI (SK-MEL-2 melanoma): 62.1 µM
- TGI (M14 melanoma): > 100 µM
- TGI (SK-OV-3 ovarian): 29 µM
- TGI (HCC-2998 colon): 10.1 µM
- TGI (PC-3 prostate): 19 µM
- TGI (MOLT-4 leukemia): 0.375 µM
- TGI (T-47D breast): 3.67 µM
- TGI (MDA-MB-231 breast): 4.88 µM
- TGI (IGROV1 ovarian): 5.11 µM
- TGI (MDA-N): 4.03 µM
- TGI (COLO 205 colon): 0.656 µM
- TGI (OVCAR-3 ovarian): 5.99 µM
- TGI (RPMI-8226 leukemia): 2.29 µM
- TGI (DU-145 prostate): 4.73 µM
- TGI (SK-MEL-5 melanoma): 14.5 µM
- TGI (LOX IMVI melanoma): 4.21 µM
- TGI (NCI/ADR-RES ovarian): 13.8 µM
- TGI (NCI-H226 lung): 73.5 µM
- TGI (HOP-62 NSCLC): 56.5 µM
- TGI (SF-539 CNS): 31.7 µM
- TGI (NCI-H460 lung): 44.5 µM
- TGI (SN12C renal): 7.59 µM
- TGI (SR leukemia): 0.265 µM
- TGI (K-562 leukemia): 0.23 µM
- TGI (ACHN renal): 1.44 µM
- TGI (BT-549 breast): > 25.5 µM
- TGI (KM12 colon): 32.9 µM
- TGI (HS 578T breast): 32.9 µM
- TGI (A498 renal): 18.9 µM
- TGI (A549 NSCLC): 52.4 µM
